The values that follow are results of earlier work, collected in article PMC12216204 (Scientific Reports, 2025).

Data set [1] relates to orthotopic MDA-MB-231 (TNBC) tumors.

With WXEAAYQkFL (head to tail) [cy18-4], the proteolytic stability result was “proteolytically stable”. In addition, the “uptake by the non-cancerous cells” value with non-cancerous cells is on record as “minimal uptake”. Besides, the “accumulation in mice bearing orthotopic MDA-MB-231 (TNBC) tumors” value in data set [1] is reported as “accumulated primarily at the tumor site”.
WXEAAYQRFL [compound 18]: the proteolytic stability entry is “not proteolytically stable”.
